Earlier results as cited in patent US20020111657A1, “Method of controlling body temperature while reducing shivering” (priority 2001, published 2002).

Tested on: shivering threshold
Conditions: patients at normal temperature warmed until sweating then cooled until shivering; Talke, et al., Anesthesiology 87(4):835-841, 1997

SMILES | effect on shivering threshold
Clc1cccc(Cl)c1N=C1NCCN1 [clonidine] | able to lower the shivering threshold
Cc1cccc([C@H](C)c2cnc[nH]2)c1C [dexmedetomidine] | able to lower the shivering threshold
